Results taken from patent US10669272B2, “Substituted naphthyridinone compounds useful as T cell activators” (BRISTOL-MYERS SQUIBB COMPANY, priority 2018, dated 2020).
Read-outs that look alike come from different tables or passages of the source.

Experiments:
[1] = test system: Human venous whole blood; test: Human whole blood IFN-γ assay; type: cell-based; settings: human whole blood, read-out: INFg Whole Blood Normalized Agonist EC50;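 further: blood from healthy donors exposed to compound for 1 h before stimulation with anti-CD3 and anti-CD28 at 1 µg/mL each, IFN-γ quantified in supernatant by AlphaLISA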
[2] = target: T1, human DGKζ (Homo sapiens, UniProt Q13574); test: DGKζ LIPGLO assay (extruded liposome substrate), in vitro DGK inhibition; type: biochemical; settings: read-out: DGKz LIPGLO IC50
T1 construct: TVMV protease cleavage site (C); Hexa-His (C); made in house; host or cells: Sf9 insect cells (baculovirus, Bac-to-Bac)
T1 sequence (Q13574 with tags, fused parts or gaps isoform Q13574-4): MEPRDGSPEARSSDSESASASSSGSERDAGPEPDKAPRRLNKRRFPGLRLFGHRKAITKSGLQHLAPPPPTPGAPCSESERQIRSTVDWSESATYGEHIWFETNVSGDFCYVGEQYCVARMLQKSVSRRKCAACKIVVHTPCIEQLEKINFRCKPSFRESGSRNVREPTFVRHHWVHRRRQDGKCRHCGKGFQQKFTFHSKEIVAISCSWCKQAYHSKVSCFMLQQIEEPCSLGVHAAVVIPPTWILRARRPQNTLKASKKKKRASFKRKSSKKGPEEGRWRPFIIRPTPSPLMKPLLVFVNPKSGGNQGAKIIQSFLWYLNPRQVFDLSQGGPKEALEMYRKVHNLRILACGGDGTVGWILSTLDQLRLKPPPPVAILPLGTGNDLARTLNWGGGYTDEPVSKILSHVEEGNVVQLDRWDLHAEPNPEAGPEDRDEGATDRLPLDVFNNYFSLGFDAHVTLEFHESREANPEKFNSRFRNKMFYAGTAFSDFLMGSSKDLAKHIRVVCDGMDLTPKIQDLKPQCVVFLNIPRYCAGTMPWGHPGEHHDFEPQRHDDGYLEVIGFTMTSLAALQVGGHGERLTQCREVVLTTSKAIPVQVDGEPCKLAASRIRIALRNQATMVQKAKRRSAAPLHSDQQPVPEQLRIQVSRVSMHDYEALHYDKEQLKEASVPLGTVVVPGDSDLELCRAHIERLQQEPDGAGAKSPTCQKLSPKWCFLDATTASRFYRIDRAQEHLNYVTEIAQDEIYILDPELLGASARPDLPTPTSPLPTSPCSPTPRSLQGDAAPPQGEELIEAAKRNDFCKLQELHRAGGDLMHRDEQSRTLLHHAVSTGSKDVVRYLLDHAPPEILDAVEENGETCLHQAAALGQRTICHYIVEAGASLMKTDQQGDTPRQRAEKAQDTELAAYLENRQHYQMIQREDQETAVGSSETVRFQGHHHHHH

[3] = target: T2, human DGKα (Homo sapiens, UniProt P23743); test: DGKα LIPGLO assay (extruded liposome substrate), in vitro DGK inhibition; type: biochemical; settings: read-out: DGKa LIPGLO IC50
T2 construct: TVMV protease cleavage site (C); Hexa-His (C); made in house; host or cells: Sf9 insect cells (baculovirus, Bac-to-Bac)
T2 sequence (P23743 with tags, fused parts or gaps): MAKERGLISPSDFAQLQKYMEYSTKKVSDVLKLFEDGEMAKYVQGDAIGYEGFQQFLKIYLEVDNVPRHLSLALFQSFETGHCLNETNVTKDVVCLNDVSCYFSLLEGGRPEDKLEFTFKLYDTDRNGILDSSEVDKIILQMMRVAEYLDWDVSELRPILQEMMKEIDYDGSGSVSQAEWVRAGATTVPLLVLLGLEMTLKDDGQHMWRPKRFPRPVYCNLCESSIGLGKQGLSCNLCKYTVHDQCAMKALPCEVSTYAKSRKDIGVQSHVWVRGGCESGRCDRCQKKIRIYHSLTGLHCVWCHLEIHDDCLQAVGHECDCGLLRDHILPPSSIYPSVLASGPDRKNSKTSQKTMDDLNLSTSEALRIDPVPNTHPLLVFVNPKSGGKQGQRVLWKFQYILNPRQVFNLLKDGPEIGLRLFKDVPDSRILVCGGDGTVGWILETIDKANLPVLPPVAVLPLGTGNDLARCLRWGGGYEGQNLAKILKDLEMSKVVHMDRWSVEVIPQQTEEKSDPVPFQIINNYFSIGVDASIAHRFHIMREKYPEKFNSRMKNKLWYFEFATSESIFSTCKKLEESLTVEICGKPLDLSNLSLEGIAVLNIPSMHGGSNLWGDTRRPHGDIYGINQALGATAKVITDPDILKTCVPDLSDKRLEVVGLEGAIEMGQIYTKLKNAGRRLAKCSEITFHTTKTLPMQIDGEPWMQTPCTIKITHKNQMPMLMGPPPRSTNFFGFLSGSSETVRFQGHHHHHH

[4] = anti-CD3 plus anti-CD28, 24 hours, 3 μM reference compound = 100% activation
[5] = Homo sapiens, 24 h, anti-CD3 plus anti-CD28, 24 hours, 3 μM reference compound = 100% activation
[6] = Homo sapiens, 24 h, normalized to 3 μM reference compound with anti-CD3 plus anti-CD28 as 100% activation
[7] = normalized to 3 μM reference compound with anti-CD3 plus anti-CD28 as 100% activation

| IC50 ([2]; DGKζ liposome (LIPGLO) assay) | IC50 ([3]; DGKα liposome (LIPGLO) assay) | IC50 ([2]; liposome (LIPGLO) assay) | IC50 ([3]; liposome (LIPGLO) assay) | Compound | EC50 [1, 4] | EC50 [1, 5] | EC50 [1, 6] | EC50 [1, 7] |
| --- | --- | --- | --- | --- | --- | --- | --- | --- |
| 2600 nM | 250 nM | – | – | C[C@@H]1CN(c2c(C#N)c(=O)n(C)c3ccc(C#N)nc23)CCN1C(c1ccc(F)cc1)c1ccc(F)cn1 (stereo partly drawn) [Example 902] | 2200 nM | – | – | – |
| 25000 nM | 740 nM | – | – | C[C@@H]1CN(c2c(C#N)c(=O)n(C)c3ccc(C#N)nc23)CCN1Cc1ccccn1 [Example 990] | – | 20000 nM | – | – |
| 1600 nM | 4200 nM | – | – | C[C@@H]1CN(c2c(C#N)c(=O)n(C)c3ccc(C#N)nc23)[C@@H](C)CN1C(c1ccccc1)c1ccc(F)cc1 (stereo partly drawn) [Example 808] | 1300 nM | – | – | – |
| – | – | 18000 nM | 11000 nM | C[C@@H]1CN(c2cc(=O)n(C)c3ccc(C#N)nc23)[C@@H](C)CN1Cc1ccc(OC(F)(F)F)c(Br)c1 [Example 629] | – | – | 4200 nM | – |
| 8600 nM | 22000 nM | – | – | Cc1ccc(C(c2ccc(F)cc2)N2C[C@H](C)N(c3c(C#N)c(=O)n(C)c4ccc(C#N)nc34)C[C@H]2C)cc1 (stereo partly drawn) [Example 817] | 1100 nM | – | – | – |
| – | – | 110 nM | 830 nM | CCC(c1ccc(C2CC2)cc1F)N1C[C@H](CC)N(c2cc(=O)n(C)c3ccc(C#N)nc23)C[C@H]1CC (single isomer, unassigned) [Example 1360] | – | – | – | 700 nM |
| 2800 nM | 22000 nM | – | – | C[C@@H]1CN(c2c(C#N)c(=O)n(C)c3ccc(C#N)nc23)[C@@H](C)CN1C(c1cccc(F)c1)c1ccc(C(F)(F)F)cn1 (single isomer, unassigned) [Example 840] | 810 nM | – | – | – |
| – | – | 6000 nM | 440 nM | C[C@@H]1CN(c2cc(=O)n(C)c3ccc(C#N)nc23)[C@@H](C)CN1C(c1ccc(F)cc1)C(F)(F)F (single isomer, unassigned) [Example 582] | – | – | – | 1700 nM |
| – | – | 4500 nM | 3600 nM | C[C@@H]1CN(c2c(F)c(=O)n(C)c3ccc(C#N)nc23)[C@@H](C)CN1C(c1ccc(F)cc1)c1c(F)cccc1F (single isomer, unassigned) [Example 329] | – | – | – | 13000 nM |
| – | – | 340 nM | 1900 nM | CC(c1ccc(C2(C#N)CC2)cc1)N1C[C@H](C)N(c2cc(=O)n(C)c3ccc(C#N)nc23)C[C@H]1C (stereo partly drawn) [Example 1254] | – | – | – | 1800 nM |
| – | – | 680 nM | 1700 nM | CC[C@H]1CN(C(C)c2ccc(C3CC3)cc2F)[C@H](CC)CN1c1cc(=O)n(C)c2ccc(C#N)nc12 (single isomer, unassigned) [Example 1358] | – | – | 1200 nM | – |
| – | – | 1700 nM | 1500 nM | COC[C@@H]1CN(c2cc(=O)n(C)c3ccc(C#N)nc23)[C@@H](C)CN1C(C)c1ccc(F)cc1 (single isomer, unassigned) [Example 1160] | – | – | 1100 nM | – |
| – | – | 910 nM | 1300 nM | CC(C)Oc1ccc(C(C)N2C[C@H](C)N(c3cc(=O)n(C)c4ccc(C#N)nc34)C[C@H]2C)cn1 (single isomer, unassigned) [Example 1325] | – | – | – | 1800 nM |
| – | – | 1200 nM | 260 nM | C[C@@H]1CN(c2cc(=O)n(C)c3ccc(C#N)nc23)[C@@H](C)CN1C(c1ccc(F)cc1)c1cc(F)ccn1 (single isomer, unassigned) [Example 474] | – | – | – | 260 nM |
| 2400 nM | 440 nM | – | – | C[C@@H]1CN(c2c(C#N)c(=O)n(C)c3ccc(C#N)nc23)[C@@H](C)CN1C(c1ccc(F)cc1)c1cc(C2CC2)on1 (single isomer, unassigned) [Example 868] | – | 2200 nM | – | – |
| 730 nM | 590 nM | – | – | C[C@@H]1CN(c2c(C#N)c(=O)n(C)c3ccc(C#N)nc23)CCN1C(c1ccc(F)cc1)c1ccc(F)cc1F (stereo partly drawn) [Example 946] | – | 680 nM | – | – |
| – | – | 490 nM | 6.9 nM | C[C@@H]1CN(c2cc(=O)n(C)c3ccc(C#N)nc23)[C@@H](C)CN1C(c1ccc(F)cn1)c1ccc(F)cc1F (single isomer, unassigned) [Example 684] | – | – | – | 350 nM |
| 13000 nM | 3600 nM | – | – | C[C@@H]1CN(c2c(C#N)c(=O)n(C)c3ccc(C#N)nc23)CCN1C(c1ccc(F)cc1)c1cocn1 (stereo partly drawn) [Example 1023] | 3500 nM | – | – | – |
| – | – | 1600 nM | 310 nM | CC(c1ccc(C(F)(F)F)cn1)N1C[C@H](C)N(c2cc(=O)n(C)c3ccc(C#N)nc23)C[C@H]1C (single isomer, unassigned) [Example 643] | – | – | – | 5300 nM |
| 7200 nM | 3500 nM | – | – | COC(=O)c1cccc(C(C)N2CCN(c3c(C#N)c(=O)n(C)c4ccc(C#N)nc34)C[C@H]2C)c1 (single isomer, unassigned) [Example 983] | 13000 nM | – | – | – |

| IC50 ([2]; DGKζ liposome (LIPGLO) assay) | IC50 ([3]; DGKα liposome (LIPGLO) assay) | IC50 ([2]; liposome (LIPGLO) assay) | IC50 ([3]; liposome (LIPGLO) assay) | Compound | EC50 [1, 4] | EC50 [1, 5] | EC50 [1, 6] | EC50 [1, 7] |
| --- | --- | --- | --- | --- | --- | --- | --- | --- |
| – | – | 65000 nM | 20000 nM | C[C@@H]1CN(c2c(C#N)c(=O)n(C)c3ccc(C#N)nc23)CCN1C(c1ccc(F)cc1)c1cn(C)cn1 (single isomer, unassigned) [Example 1026] | – | – | – | 20000 nM |
| – | – | 96000 nM | 97000 nM | CC(c1ccc(P(C)(C)=O)cc1)N1C[C@H](C)N(c2cc(=O)n(C)c3ccc(C#N)nc23)C[C@H]1C (stereo partly drawn) [Example 1291] | – | – | – | 20000 nM |
| – | – | 19000 nM | 1200 nM | C[C@@H]1CN(c2c(C#N)c(=O)n(C)c3ccc(C#N)nc23)CCN1C(c1ccc(F)cc1)c1nccs1 (single isomer, unassigned) [Example 1025] | – | – | – | 2000 nM |
| 3000 nM | 220 nM | – | – | CC(c1ccc(C#N)cc1)N1CCN(c2c(C#N)c(=O)n(C)c3ccc(C#N)nc23)C[C@H]1C (stereo partly drawn) [Example 955] | 20000 nM | – | – | – |
| – | – | 2200 nM | 5400 nM | CC[C@@H]1CN(c2cc(=O)n(C)c3ccc(C#N)nc23)[C@@H](C)CN1C(C)c1ccc(OC(C)C)cc1 (single isomer, unassigned) [Example 1349] | – | – | – | 580 nM |
| – | – | 7600 nM | 4100 nM | CC(c1cc(C(C)(C)C)on1)N1C[C@H](C)N(c2cc(=O)n(C)c3ccc(C#N)nc23)C[C@H]1C (single isomer, unassigned) [Example 1283] | – | – | 4000 nM | – |
| – | – | 58 nM | 21 nM | CC[C@H]1CN(C(C)c2ccc(OC(F)(F)F)cc2F)[C@H](CC)CN1c1cc(=O)n(C)c2ccc(C#N)nc12 (single isomer, unassigned) [Example 1371] | – | – | – | 150 nM |
| 31000 nM | 1500 nM | – | – | CC(c1c(F)cccc1F)N1C[C@H](C)N(c2c(C#N)c(=O)n(C)c3ccc(C#N)nc23)C[C@H]1C (single isomer, unassigned) [Example 780] | – | 14000 nM | – | – |
| – | – | 800 nM | 7500 nM | C[C@@H]1CN(c2cc(=O)n(C)c3ccc(C#N)nc23)[C@@H](C)CN1C(c1ccc(F)cc1)c1ccnc(C(C)(C)C)n1 (single isomer, unassigned) [Example 408] | – | – | 800 nM | – |
| – | – | 1000 nM | 110 nM | CC[C@@H]1CN(c2cc(=O)n(C)c3ccc(C#N)nc23)[C@@H](C)CN1Cc1ccccc1 [Example 1076] | – | – | 1700 nM | – |
| – | – | 9000 nM | 4300 nM | C[C@@H]1CN(c2cc(=O)n(C)c3ccc(C#N)nc23)[C@@H](C)CN1Cc1cccc2c1OCCN2 [Example 634] | – | – | 2900 nM | – |
| 220 nM | 54 nM | – | – | CC(C)c1noc(C(c2ccc(F)cc2)N2C[C@H](C)N(c3cc(=O)n(C)c4ccc(C#N)nc34)C[C@H]2C)n1 (single isomer, unassigned) [Example 748] | 410 nM | – | – | – |
| – | – | 3600 nM | 5400 nM | CCC(c1ccc(OCCC2CC2)cc1)N1C[C@H](C)N(c2cc(=O)n(C)c3ccc(C#N)nc23)C[C@H]1C (single isomer, unassigned) [Example 1445] | – | – | – | 5300 nM |
| 11000 nM | 3900 nM | – | – | C[C@@H]1CN(c2c(C#N)c(=O)n(C)c3ccc(C#N)nc23)CCN1Cc1cccc(-c2ccccc2)c1 [Example 1004] | – | 3500 nM | – | – |
| – | – | 4900 nM | 40000 nM | CC(c1ccc(OC(F)(F)F)cc1)N1C[C@H](C)N(c2cc(=O)n(C)c3ccc(C#N)nc23)C[C@H]1CN(C)C (single isomer, unassigned) [Example 1414] | – | – | 10000 nM | – |
| 41000 nM | 37000 nM | – | – | Cc1ccc(C(c2ccc(Cl)cc2)N2CCN(c3c(C#N)c(=O)n(C)c4ccc(C#N)nc34)C[C@H]2C)cc1 (single isomer, unassigned) [Example 944] | 6700 nM | – | – | – |
| 3200 nM | 14000 nM | – | – | C[C@@H]1CN(c2cc(=O)n(C)c3ccc(C#N)nc23)[C@@H](C)CN1C(c1ccc(F)cc1)c1nc(C2CC2)nn1C (single isomer, unassigned) [Example 768] | 1800 nM | – | – | – |
| – | – | 15 nM | 24 nM | CC[C@H]1CN(C(C)c2ccc(OC)cc2)[C@H](CC)CN1c1cc(=O)n(C)c2ccc(C#N)nc12 (single isomer, unassigned) [Example 1366] | – | – | – | 11 nM |
| – | – | 550 nM | 45 nM | CC[C@@H]1CN(c2cc(=O)n(C)c3ccc(C#N)nc23)[C@@H](CC)CN1Cc1ccc(OC(F)(F)F)cc1 [Example 1363] | – | – | 430 nM | – |
| – | – | 1700 nM | 4100 nM | COc1cccc(C(c2ccc(F)cc2)N2C[C@H](C)N(c3cc(=O)n(C)c4ccc(C#N)nc34)C[C@H]2C)c1 (single isomer, unassigned) [Example 661] | – | – | – | 1000 nM |
